# Measured values as given in patent US20130273557A1 (priority 2010, published 2013).
# “Also recorded” adds a separate entry of the source.
# What was measured:
# C2C12 cells [1] = conditions: mouse, 18 h, 30 µM
# Description: (§1) Data are presented as a percentage of the vehicle-treated control ±SEM (n=10 wells at each concentration). […] Experiments commenced 18 hr. after addition of drug. […] Data are presented as a percentage of the vehicle-treated control±SEM (n=14-17 wells for each group).
# (§2) The C2C12 mouse myoblast cell line (ATCC, Manasses, Va.) was cultured in Dulbecco's Modified Eagle Medium (DMEM; Gibco®; Carlsbad, Calif.) supplemented with 10% fetal bovine serum (FBS), 2 mM GlutaMax® and penicillin/streptomycin. Cells were maintained in 10% CO2 humidified at 37° C.
# (§3) Cellular viability was measured using CellTiter-Blue® (Promega Corp., Madison, Wis.) in black-walled optical imaging multiwell plates, and cellular ATP was measured using the CellTiter-Glo® (Promega Corp., Madison, Wis.) luminescence assay in opaque-walled multiwell plates according to the manufacturer's protocol.
# [2] = test system: cultured hippocampal neurons; conditions: 10 μM, 12 hr pre-treatment
# Description: as §3, with “Cultured hippocampal neurons were prepared and plated on 96 well plates. […] Cellular” for “Cellular”
# subjects with ALS = conditions: double-blind, placebo- and low-dose-controlled 2-part Phase 2; cited from earlier work
# [3] = target: human F1FO ATP synthase OSCP subunit (Homo sapiens, UniProt P48047); conditions: co-incubation in 'cold' dexpramipexole (100 μM)
# Description: The human ORF constructs for alpha, beta, b, c, delta, d, epsilon, gamma and OSCP ATP synthase subunits, tagged with Myc and DDK (Flag) tags were from Origene Technologies (Rockville, Md.). 293T cells were transfected with the above constructs, using the calcium phosphate method (Li et al. 2008). On day-3 post transfection, the cells were lysed and the fusion proteins were bound to the EZview™ Red ANTI-FLAG® M2 Affinity Gel (Sigma, USA), according to the manufacturer's protocol. The proteins were eluted from a portion of the samples and presence of the proteins on the beads was verified by immunoblot analysis, using the mouse anti-Myc antibodyies (Cell signaling Technology). […] They were spun at 3000×g in 0.45 um Spin-X centrifugal devices (Corning Life Sciences, USA) for 10 min. The samples were washed three times with PBS and the filter units were incubated in Ultima Gold scintillation liquid (Perkin Elmer Health Sciences, Inc.) overnight. Samples were counted for ^14C, using a Beckman Coulter LS 5000TD scintillation counter.
# [4] = doses that should produce pharmacodynamically effective CNS concentrations; cited from earlier work
# [5] = test system: SH-SY5Y neuroblastoma cells; conditions: 1-100 μM; 24 hr
# Description: (§4) Undifferentiated SH-SY5Y human neuroblastoma cells (ATCC, Manasses, Va.) were maintained in humidified 5% CO2 in 1:1 Ham's F12 nutrient mixture with Glutamax® and Minimal Essential Medium with L-glutamine (MEM-Alpha), 10% FBS, and 1% penicillin/streptomycin (Gibco® Invitrogen Corp., Carlsbad, Calif.).
# as §3
# C2C12 cells [6] = type: cell-based, mouse; conditions: dexpramipexole 30 μM or PSI 30 nM, 18 hr, relative to control
# Description: as §1, §2, §3
# [7] = test system: SH-SY5Y neuroblastoma cells; assay: PSI-induced cell death in SH-SY5Y cells (CellTiter-Blue)
# Description: Data shown represent mean±SEM. […] Bar graphs represent normalized mean±SEM. Cell viability was measured by CellTiter-Blue®; n=41-98 wells/condition.
# as §4, §3
# [8] = test system: SH-SY5Y neuroblastoma cells; conditions: 30 μM
# Description: as §4
# (§5) OCR and ECAR were measured with a Seahorse® XF24 Flux Analyzer (Seahorse Bioscience, Billerica, Mass.). For PSI experiments on C2C12 cells, basal values were assessed in non-buffered DMEM Assay Medium without glucose, glutamine or pyruvate, and supplemented with 25 mM glucose, 6 mM Glutamax®, and 1 mM sodium pyruvate. […] Succinate and ADP stocks were diluted to 10× concentrations in pre-warmed XF MAS buffer, pH 7.2. Using a Plate Prep Station (Seahorse Bioscience, Billerica, Mass.), cells were washed with 1 mL buffer and were brought to 607 μL with buffer. […] Raw basal OCR and ECAR values were normalized as a percent of the mean control value for each individual experiment. Normalized data from experiments were expressed as mean±SEM.
# [9] = test system: digitonin-permeabilized cultured cortical neurons
# Description: Primary rat cortical cultures were incubated with digitonin (10 μg/ml) and rotenone (100 nM) for 45 minutes in MAS1 buffer prior to measurement of oxygen consumption rate (OCR) by a Seahorse® flux analyzer. […] Data are shown as a percentage of the control group OCR±SEM.
# Primary cultures of cortical neurons were prepared as described previously, plated at 8×10^5 cells/well for Seahorse XF24 experiments and grown in Neurobasal A supplemented with B27, 1 mM glutamine and penicillin/streptomycin for […] in vitro (DIV). On DIV 7, media without antibiotics was substituted. The cultures were used on DIV 9-10.
# as §5
# [10] = target: T1, intermediate- and large-conductance channel activity of PSI-mitochondria (Rattus norvegicus, UniProt P19511+Q06647); assay: Patch clamp recording of brain-derived PSI-mitochondria; type: biochemical
# T1 sequence (P19511 43-256): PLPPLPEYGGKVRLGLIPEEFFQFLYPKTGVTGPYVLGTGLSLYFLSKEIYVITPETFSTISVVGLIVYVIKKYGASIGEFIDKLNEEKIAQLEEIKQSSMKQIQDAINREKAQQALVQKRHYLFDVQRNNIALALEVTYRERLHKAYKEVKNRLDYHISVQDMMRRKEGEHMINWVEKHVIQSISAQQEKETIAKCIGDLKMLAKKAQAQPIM
# T1 sequence (Q06647 24-213): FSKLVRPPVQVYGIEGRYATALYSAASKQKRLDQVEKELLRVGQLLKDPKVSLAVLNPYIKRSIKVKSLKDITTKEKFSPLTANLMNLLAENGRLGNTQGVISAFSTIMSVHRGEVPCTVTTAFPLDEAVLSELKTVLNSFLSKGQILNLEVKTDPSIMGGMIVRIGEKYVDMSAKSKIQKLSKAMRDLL
# Description: Isolation of Brain-derived Mitochondria. Standard techniques were adapted for isolating brain-derived mitochondria. Mitochondria were stored in isolation buffer (IB) at −80° C. For PSI-mitochondria, male Sprague-Dawley rats (6 wo, ˜200 gm, 3-6 rats/group/condition, at least 2 different preparations/experimental paradigm) were injected with the ubiquitin proteasome inhibitor Z-Ile-Glu(OtBu)-Ala-Leu-al (PSI; Peptides International Inc, Kentucky, USA; s.c. every other day for 1 or 2 weeks; 6.0 mg/kg PSI in DMSO, or with DMSO, 200 μL/rat), and mitochondria isolated and stored as above.
# Reagents were rapidly perfused into the recording chamber.
# [11] = 30 μM applied 1 hr prior to recording
# Chain of human F1FO ATP synthase OSCP subunit (P48047 24-213): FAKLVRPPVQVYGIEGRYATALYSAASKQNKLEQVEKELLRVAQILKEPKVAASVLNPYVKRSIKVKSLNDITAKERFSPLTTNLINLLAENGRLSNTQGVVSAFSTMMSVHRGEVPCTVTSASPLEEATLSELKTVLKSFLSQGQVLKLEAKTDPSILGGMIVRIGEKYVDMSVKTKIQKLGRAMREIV
smiles,measurement,setting,value
"CCCN[C@@H]1CCc2nc(N)sc2C1 [dexpramipexole, (6R)-4,5,6,7-tetrahydro-N-6-propyl-2,6-benzothiazole-diamine]",cell viability,C2C12 cells [1],neither ATP levels nor cell viability (FIG. 5b) were significantly affected
same,increase in ATP levels compared to vehicle-treated cultures,[2],11%
same,trends in efficacy,subjects with ALS,reduction of functional decline and decreased mortality
same,competition of ^14C-dexpramipexole binding to OSCP subunit,[3],significantly reduced binding
same,safety and tolerability,[4],safe and well-tolerated
same,maximal group increases in ATP levels relative to control,[5],~18%
same,ATP levels,C2C12 cells [6],neither ATP levels nor cell viability (FIG. 5b) were significantly affected
same,cytoprotective concentrations,[7],≥ 10 µM
same,protection against PSI-induced cell death,[7]; pretreatment with dexpramipexole,protective; also recorded: inhibited PSI-induced cell death in a concentration-dependent manner
same,basal oxygen consumption rate (OCR),[8],modestly decreased
same,OCR during succinate incubation,[9]; [11],lower OCR
same,OCR following an ADP pulse,[9]; [11],significantly lower OCR
same,increase in OCR produced by succinate and following the ADP pulse,[9]; acute application 30 μM,less than in control cells
same,basal respiration,"[9]; acute application 30 μM, rotenone",did not affect
same,Hill slope of concentration-response curve,[10]; NPO inhibition in PSI-mitochondria,< 1
same,concentration for full inhibition of aberrant currents (EC100),[10]; PSI-mitochondria,> 10 µM
same,intermediate- and large-conductance channel activity,[10]; PSI-mitochondria,the inhibition was concentration-dependent and reversible
same,peak conductance,"[10]; dexpramipexole 2 μM, CSA 1 μM, PSI-mitochondria",significantly and reversibly decreased peak conductance
same,concentrations producing complete elimination of aberrant currents (EC100),[10]; level stated in discussion,10 to 30 µM
